In patent US20200308616A1, “PROCESS FOR PRODUCING HIGH PURITY STEVIOL GLYCOSIDES” (PureCircle Sdn Bhd, priority 2015, published 2020):
Like-named read-outs stand apart in the source and are kept apart here.

Legend:
[1] = tested on: gut microbiome; conditions: cited from earlier work
[2] = tested on: Kluyveromyces marxianus strain; experiment: Direct assay: quantification of intracellular RebA by LC-MS; assay type: cell-based
Method: The selected microbial strain was cultivated in a defined mineral medium with RebA as the only carbon source. This medium contained (per liter): 9 g RebA, 5 g (NH4)2SO4, 3 g KH2PO4, 0.5 g MgSO4×7H2O, 15 mg EDTA, 4.5 mg ZnSO4×7H2O, 0.3 mg CoCl2×6H2O, 1 mg MnCl2×4H2O, 0.3 mg CuSO4×5H2O, 4.5 mg CaCl2×2H2O, 3 mg FeSO4×7H2O, 0.4 mg NaMoO4×2H2O, 1 mg H3BO3, 0.1 mg KI, 0.05 mg biotin, 1 mg calcium pantothenate, 25 mg inositol, 1 mg thiamine HCl, 1 mg pyridoxine HCl, 0.2 mg para-aminobenzoic acid. A volume of 20 mL culture medium was inoculated with a single colony. All cultivations were performed in 25 mL culture medium in a 300 mL non-baffled shake flask on a laboratory shaker with 250 rpm and 2.5 cm shaking diameter at 28° C. for 72 h. The complete culture was transferred to a beaker containing 125 mL of a solution containing 45 ppm 4-Nitrophenyl β-D-glucopyranoside in 60% methanol in water that was pre-cooled to −40° C. The mixture was then transferred to three 50 mL centrifugation tubes that were pre-cooled on dry ice and centrifuged below 0° C. at 4248 g for 10 min. Subsequently, an aliquot of the supernatant (quench) was stored at −80° C. and the rest of the supernatant was discarded, while the pellet was kept on dry ice. Then 5 mL 60% methanol in water pre-cooled on dry ice was used to re-suspend the 3 pellets. The re-suspended pellets were transferred to a single 15 mL centrifugation tube precooled on dry ice and centrifuged below 0° C. at 4248 g for 10 min. Then the supernatant was discarded and the pellet was re-suspended in fresh 5 mL 60% methanol in water pre-cooled on dry ice and the suspension was centrifuged below 0° C. at 4248 g for 10 min. Then the supernatant was discarded and the pellet was re-suspended again in fresh 5 mL 60% methanol in water pre-cooled on dry ice and the suspension was centrifuged below 0° C. at 4248 g for 10 min. […] The concentration of RebA in quench, wash, and cell extract was quantified by LC-MS (FIG. 2), in which the error bars indicate the standard error of mean from 2 parallel experiments.

[3] = tested on: microbial strains; experiment: Indirect assay: growth with RebA as the only carbon source and RebA degradation by the soluble fraction of the cell extract; assay type: cell-based; conditions: defined mineral medium, 10 g/L RebA as only carbon source, 28° C., 72 h; 19 microbial strains
Method: Microbial strains were assayed for their ability to assimilate RebA from the culture medium by growing the strains in a defined mineral medium with RebA as the only carbon source.
This medium contained (per liter): 10 g RebA, 5 g (NH4)2SO4, 3 g KH2PO4, 0.5 g MgSO4×7H2O, 15 mg EDTA, 4.5 mg ZnSO4×7H2O, 0.3 mg CoCl2×6H2O, 1 mg MnCl2×4H2O, 0.3 mg CuSO4×5H2O, 4.5 mg CaCl2×2H2O, 3 mg FeSO4×7H2O, 0.4 mg NaMoO4×2H2O, 1 mg H3BO3, 0.1 mg KI, 0.05 mg biotin, 1 mg calcium pantothenate, 25 mg inositol, 1 mg thiamine HCl, 1 mg pyridoxine HCl, 0.2 mg para-aminobenzoic acid. A volume of 1 mL culture medium was inoculated with 10 μl of an overnight culture grown.
All cultivations were performed in 96 square well plates on a laboratory shaker with 300 rpm and 5.1 cm shaking diameter at 28° C. for 72 h. Growth was monitored by mixing 50 μL or culture volume with 50 μL ethanol in a 96 well plate and subsequently measuring the optical density at 600 nm (OD600) in a spectrophotometer (Molecular Devices). […]
Then, 70 μL of a 2 g/L RebA solution was added to the soluble fraction before incubation at 72 h at 28° C. RebA was detected by LC-MS set to single ion monitoring (SIM) mode, negative mode, m/z=965.60.
The difference in RebA concentration between the start and the end of the incubation was calculated for each soluble fraction. […]

Compound	degradation by the gut microbiome ([1]; Gardana et al., 2003)	degradation by the gut microbiome [1]	concentration of RebA in the cell extract versus quench and wash solutions ([2]; 9 g/L RebA as only carbon source, 72 h, LC-MS, FIG. 2, 2 parallel experiments)	concentration of RebA in the wash solution versus quench solution ([2]; LC-MS, FIG. 2)	intracellular accumulation of RebA ([2]; conclusion from cell extract versus quench and wash concentrations)	assimilation of RebA from the culture medium [3]
C=C1C[C@@]23CC[C@H]4[C@@](C)(CCC[C@@]4(C)C(=O)O)[C@@H]2CC[C@]1(O)C3 [steviol]	not metabolized further					
C=C1C[C@@]23CC[C@H]4[C@@](C)(CCC[C@@]4(C)C(=O)O[C@@H]4O[C@H](CO)[C@@H](O)[C@H](O)[C@H]4O)[C@@H]2CC[C@]1(O[C@@H]1O[C@H](CO)[C@@H](O)[C@H](O[C@@H]2O[C@H](CO)[C@@H](O)[C@H](O)[C@H]2O)[C@H]1O[C@@H]1O[C@H](CO)[C@@H](O)[C@H](O)[C@H]1O)C3 [RebA, Rebaudioside A]		glucose residues are cleaved off	exceeds that in the quench and wash solutions	higher than in the quench solution	accumulated intracellularly	found to assimilate RebA
